Results published in PubChem BioAssay (NCI).
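Five compound concentrations were applied to cells in 96-well plates for 48 hours; endpoints were derived by simple linear interpolation of the resulting dose-response curve. TGI marks complete inhibition of growth.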 Peptide text beside a SMILES is read from it. * marks the point of attachment. OSu = O=C1CCC(=O)N1O*; OBn = c1ccc(CO*)cc1; Bn = c1ccc(C*)cc1

Legend:
Experiment in all cases: NCI-60 cell line screen, 48 h
[1] = system: 786-0 renal
[2] = system: HCT-15 colon
[3] = system: K-562 leukemia
[4] = system: NCI-H23 lung
[5] = system: OVCAR-4 ovarian
[6] = system: RXF 393 renal
[7] = system: SW-620 colon
[8] = system: UO-31 renal
[9] = system: MCF7 breast

SMILES | TGI [1] [µM] | TGI [2] [µM] | TGI [3] [µM] | TGI [4] [µM] | TGI [5] [µM] | TGI [6] [µM] | TGI [7] [µM] | TGI [8] [µM] | TGI [9] [µM]
O=C1NC(=S)NC(=O)C1=Cc1ccc2ccccc2n1 | > 100 | > 100 | > 100 | > 100 | > 100 | > 100 | > 100 | > 100 | –
COc1ccc(N2C(=O)C3c4[nH]c5ccccc5c4C4CCC(C(C)(C)C)CC4C3C2=O)cc1OC (stereo unspecified) | 33.9 | > 100 | 84.5 | > 100 | 52.2 | 29.7 | 72 | > 100 | –
CC(CC(C)(C)[N+](C)(C)C)[N+](C)(C)C (stereo unspecified) | > 100 | > 100 | > 100 | > 100 | > 100 | > 100 | > 100 | > 100 | > 100
CC(C)CC(NC(=O)C(N)CCC(=O)OCc1ccccc1)C(=O)NC(COCc1ccccc1)C(=O)NC(Cc1ccccc1)C(=O)ON1C(=O)CCC1=O (stereo unspecified) (H-E(OBn)LS(Bn)F-OSu; configuration not given here) | > 100 | – | – | 54.3 | > 100 | 78.2 | > 100 | 59 | 78.5
O=[N+]([O-])c1cc(Cl)ccc1S(=O)(=O)c1cc(Cl)cc2c1NCCC2 | > 100 | > 100 | > 100 | – | > 100 | > 100 | > 100 | > 100 | > 100
CC(C)(Oc1ccc(C(=O)c2ccc(Cl)cc2)cc1Cl)C(=O)N1CCN(c2ccccc2)CC1 | > 100 | > 100 | > 100 | > 100 | – | – | > 100 | > 100 | –
COc1cc(C(CC(OC)OC)=C(C#N)C#N)cc(OC)c1OC | > 100 | > 100 | – | > 100 | – | > 100 | > 100 | > 100 | –
COc1c(Cl)c(Cl)c(OC)c2c1C(=O)C=CC2=O | 31.3 | > 100 | 64.4 | > 100 | 28.9 | 30.9 | 31.2 | 31.7 | –
Cc1cnc2[nH]c(-c3cccc(Cl)c3)cc(=O)c2c1 | > 100 | > 100 | – | > 100 | > 100 | 85.5 | > 100 | > 100 | > 100
Cc1oc2c(C)c3oc(=O)cc(C)c3cc2c1CN | > 100 | > 100 | > 100 | > 100 | > 100 | > 100 | > 100 | > 100 | –
